Values quoted from earlier work, collected in patent US20090306452A1, “APPARATUS FOR TREATING A CONTAMINATED MEDIA WITH A SORBENT” (priority 2008, published 2009).

Conditions: log10 of concentration in octanol / concentration in water; examples of hydrophobic hazardous materials

Molecule	Log P
hexafluoromethane	about 2
Clc1cc(Cl)cc(C2(CC(Cl)(Cl)Cl)CO2)c1 (stereo not shown) [2-(3,5-dichlorophenyl)-2-(2,2,2-trichloroethyl) oxirane]	about 4
c1ccc2c(c1)Oc1ccccc1O2 [dibenzo (1,4) dioxin]	about 4
Clc1cc2oc3c(Cl)cc(Cl)c(Cl)c3c2c(Cl)c1Cl [1,2,3,6,8,9-hexachloro-dibenzofuran]	about 7
